Measurements from a compilation of properties of binary mixtures (doi:10.1021/je950194b).

Assay: excess molar enthalpy (molar enthalpy of mixing); xn = mol fraction of the nth substance listed
Conditions: 313.15 K, 100 kPa

CCC(=O)O + C1CCCCC1
Conditions	excess molar enthalpy [kcal/mol]
x1 = 0.0571	0.0337
x1 = 0.108	0.0657
x1 = 0.1537	0.0913
x1 = 0.195	0.112
x1 = 0.3264	0.154
x1 = 0.4209	0.168
x1 = 0.4921	0.171
x1 = 0.5924	0.167
x1 = 0.6856	0.147
x1 = 0.744	0.129
x1 = 0.8134	0.0982
x1 = 0.8971	0.0507
x1 = 0.9208	0.0359
x1 = 0.9458	0.0196

CCC(=O)O + CCCCCCCC
Conditions	excess molar enthalpy [kcal/mol]
x1 = 0.1539	0.065
x1 = 0.2144	0.0856
x1 = 0.2668	0.104
x1 = 0.3531	0.126
x1 = 0.4212	0.138
x1 = 0.5219	0.146
x1 = 0.5928	0.146
x1 = 0.7661	0.11
x1 = 0.8137	0.0932
x1 = 0.8676	0.0715
x1 = 0.8973	0.0566
x1 = 0.9291	0.0406

CCC(=O)O + Cc1cc(C)cc(C)c1
Conditions	excess molar enthalpy [kcal/mol]
x1 = 0.0444	0.0055
x1 = 0.0548	0.00574
x1 = 0.0718	0.00598
x1 = 0.134	0.00335
x1 = 0.1884	-0.000239
x1 = 0.2364	-0.00287
x1 = 0.3171	-0.00526
x1 = 0.3824	-0.00717
x1 = 0.4815	-0.00813
x1 = 0.5532	-0.0086
x1 = 0.65	-0.00813
x1 = 0.7359	-0.00645
x1 = 0.7879	-0.00574
x1 = 0.8479	-0.0043
x1 = 0.9176	-0.00287
x1 = 0.9571	-0.00191

CCC(=O)O + C1CCOCC1
Conditions	excess molar enthalpy [kcal/mol]
x1 = 0.0528	-0.0263
x1 = 0.1003	-0.0504
x1 = 0.1433	-0.0679
x1 = 0.1823	-0.0813
x1 = 0.3085	-0.112
x1 = 0.4009	-0.121
x1 = 0.6675	-0.101
x1 = 0.8006	-0.0648
x1 = 0.8893	-0.0335
x1 = 0.9146	-0.0229
x1 = 0.9414	-0.0127
x1 = 0.9698	-0.00598

CCC(=O)O + C1COCCO1
Conditions	excess molar enthalpy [kcal/mol]
x1 = 0.087	-0.0294
x1 = 0.125	-0.0351
x1 = 0.16	-0.039
x1 = 0.2222	-0.0406
x1 = 0.2759	-0.0392
x1 = 0.3636	-0.0318
x1 = 0.4325	-0.0239
x1 = 0.5334	-0.0103
x1 = 0.6957	0.0131
x1 = 0.7742	0.0206
x1 = 0.8728	0.0203
x1 = 0.9014	0.0174
x1 = 0.9648	0.00813
